Laboratory results as given in article PMC6124754, “Characterization of new, efficient Mycobacterium tuberculosis topoisomerase-I inhibitors and their interaction with human ABC multidrug transporters” (PLoS ONE, 2018).
≈ marks a conversion by molar mass, not a printed value. Entries after “also recorded” stand apart in the source; their conditions may differ. Where two headings read alike, the source gives them in different places.

Assays:
HFF cell line = assay: Cytotoxicity, PrestoBlue 72 h, HFF; assay type: cell-based, human; conditions: Non-toxic = not toxic up to 20 μM; for IC50: read-out: Toxicity in HFF cell line, IC50
Protocol: (§1) The toxic effects of the selected MtTopo-I inhibitory Vichem compounds were tested in three cell lines, HFF (human foreskin fibroblast), HEK293 (human embryonic kidney) and A431 (human epidermoid carcinoma) cell lines, obtained from ATCC. Establishment of ABC transporter-expressing A431cell lines was achieved by retroviral transduction of the cells as described previously.
(§2) For cytotoxicity measurements the cells were seeded in a 96-well culture plate at 5,000 cells/well (A431, HEK293) or 6000 cells/well (HFF) and incubated overnight. […] After 72 hours of incubation viability was assessed by PrestoBlue® assay (Invitrogen). IC50 values were obtained by sigmoidal curve fitting in the GraphPad Prism software. All experiments were performed in triplicates and repeated at least in three independent experiments. DMSO, used as solvent of the compounds, had no effect on viability at the applied concentration.

HEK293 cell line = assay: Cytotoxicity, PrestoBlue 72 h, HEK293; assay type: cell-based, human; conditions: for IC50: Homo sapiens, HEK293, Non-toxic = not toxic up to 20 μM, read-out: Toxicity in HEK293 cell line, IC50; for Toxicity in HEK293 cell line, IC50: Non-toxic = not toxic up to 20 μM
Protocol: as §1, §2

parental A431 cell line = assay: Cytotoxicity, PrestoBlue 72 h, parental A431; assay type: cell-based, human; conditions: Non-toxic = not toxic up to 20 μM; for IC50: read-out: Toxicity in parental A431 cell line, IC50
Protocol: as §1, §2

human ABCG2 [1] = target: T1, human ABCG2 (Homo sapiens, UniProt Q9UNQ0); assay: Vanadate-sensitive ATPase activity assay in Sf9 membrane vesicles, ABCG2; assay type: biochemical; design: made in house; host or cells: Sf9 insect cells (baculovirus), membrane vesicles; ABCG2 ATPase, concentration at Vmax: unit not given here; conditions: for ABCG2 ATPase Vmax: vanadate-sensitive ATPase, from dose-response curves, basal 22±1.4; for ABC transporter ATPase assay, ABCG2 (summary): S6 summary table; for Effect on ABCG2-ATPase activity (in words): Sf9 membrane vesicles, 0.1–10 μM for stimulation, 50 μM for inhibition; for ABCG2 ATPase, concentration at Vmax: concentration at which Vmax was seen
T1 sequence (Q9UNQ0 1-655): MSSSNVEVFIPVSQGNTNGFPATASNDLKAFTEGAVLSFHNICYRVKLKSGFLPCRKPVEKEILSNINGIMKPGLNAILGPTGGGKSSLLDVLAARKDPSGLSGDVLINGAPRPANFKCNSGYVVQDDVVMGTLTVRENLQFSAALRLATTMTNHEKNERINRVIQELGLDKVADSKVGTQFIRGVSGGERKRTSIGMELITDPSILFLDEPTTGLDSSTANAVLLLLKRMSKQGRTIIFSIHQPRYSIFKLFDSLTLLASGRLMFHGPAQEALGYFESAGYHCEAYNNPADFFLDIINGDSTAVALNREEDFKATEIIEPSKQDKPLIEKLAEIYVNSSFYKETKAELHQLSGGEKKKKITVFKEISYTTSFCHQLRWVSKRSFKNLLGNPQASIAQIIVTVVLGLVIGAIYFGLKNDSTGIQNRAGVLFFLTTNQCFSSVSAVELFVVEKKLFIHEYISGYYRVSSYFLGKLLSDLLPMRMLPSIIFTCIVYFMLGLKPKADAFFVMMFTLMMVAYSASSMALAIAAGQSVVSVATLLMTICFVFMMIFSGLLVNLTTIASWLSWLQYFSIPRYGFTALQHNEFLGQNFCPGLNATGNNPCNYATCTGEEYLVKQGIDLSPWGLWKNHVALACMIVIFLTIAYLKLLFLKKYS

MtTopo-I = target: T2, MtTopo-I (Mycobacterium tuberculosis, UniProt P9WG49); assay: DNA relaxation assay of supercoiled pUC18 DNA by MtTopo-I; assay type: biochemical; conditions: minimum concentration providing complete inhibition
T2 construct: made in house; host or cells: E. coli

H37Rv Mtb strain = assay: H37Rv growth inhibition, resazurin reduction microplate assay (REMA); assay type: cell-based, Mycobacterium tuberculosis; conditions: for Toxicity in H37Rv assay (summary): S6 summary table; for MIC90 of compounds in H37Rv growth test / MIC90: minimum concentration providing 90% growth inhibition, 20 to 0.04 μM, N.I. = no inhibition observed up to 20 μM; for MIC90: Mycobacterium tuberculosis, H37RV, read-out: MIC90 of compounds in H37Rv growth test; for Growth inhibition of H37Rv mycobacteria (in words): tested up to 20 μM
human ABCB1 [2] = target: T3, human ABCB1 (Homo sapiens, UniProt P08183); assay: Cellular transport assay, Calcein-AM uptake in ABCB1-overexpressing PLB cells; assay type: cell-based; conditions: for ABC transporter transport assay, ABCB1 (summary): S6 summary table; for Effect on ABCB1 mediated transport (in words): PLB cells, compound 5 μM; as to ABC transporter transport assay, ABCB1 (summary): key: 0: no observed effect; +: effect observed in the assay; In the ATPase assay showing only inhibition, the - sign is applied
Protocol: (§3) For cellular transport assays, mammalian PLB (lymphoblastoid) cell lines, overexpressing ABCB1 or ABCG2 were used. The parental PLB cell line was purchased from ATCC, and ABCB1 or ABCG2 overexpressing cell lines were established by using lentiviral vectors for human ABC transporters as described earlier in [29]. The transport assays were carried out in 96-well plates. 1x10^5 cells were incubated in the presence of 0.1 μM Calcein-AM or 1 μM DCV (Dye Cycler Violet) for the ABCB1 and for the ABCG2 assays, respectively. The assay was performed in HPMI medium (NaCl 120 mM, KCl 5 mM, MgCl2 0.4 mM, CaCl2 0.04 mM, HEPES 10 mM, NaHCO3 10 mM, glucose 10 mM, Na2HPO4 5 mM; pH 7.4). Fluorescence of the cells was detected using a Victor X3 plate reader (for Calcein, exc. at 485 nm, em. at 535 nm) or the Enspire 2300 (Perkin Elmer) plate reader (for DCV, exc. at 360 nm, em. at 440 nm). Kinetics of fluorescence intensity changes were analyzed to determine relative inhibition, compared to that of a reference agent, providing full inhibition of the ABC transporter. Two of the Vichem compounds examined (VCC979812 and VCC38977) were not compatible with the DCV uptake assay because of their intrinsic fluorescence, therefore for these two compounds ABCG2 transport inhibition was characterized by following mitoxantrone uptake. Mitoxantrone uptake was measured by flow cytometry (BD FACSCanto at 633 nm) by 20 minutes incubation in the presence of 7.5 μM mitoxantrone. Each compound was measured in at least three independent experiments with three parallels in each case. DMSO, used as a solvent of compounds had no effect in this assay at the applied concentration.

[3] = system: HFF, HEK293 and A431 cell lines; assay type: cell-based, human
Protocol: as §1, §2

human ABCB1 [4] = target: T3, human ABCB1; assay: Vanadate-sensitive ATPase activity assay in Sf9 membrane vesicles, ABCB1; assay type: biochemical; design: made in house; host or cells: Sf9 insect cells (baculovirus), membrane vesicles; ABCB1 ATPase Vmax: unit not given here; conditions: for ABC transporter ATPase assay, ABCB1 (summary): S6 summary table; for Effect on ABCB1-ATPase activity (in words): Sf9 membrane vesicles, 0.1–10 μM for the stimulation in b53; for ABCB1 ATPase, concentration at Vmax: concentration at which Vmax was seen; for ABCB1 ATPase Vmax: vanadate-sensitive ATPase, from dose-response curves, basal 5.7±0.7; as to ABC transporter ATPase assay, ABCB1 (summary): key: 0: no observed effect; +: effect observed in the assay; In the ATPase assay showing only inhibition, the - sign is applied
human ABCG2 [5] = target: T1, human ABCG2; assay: Cellular transport assay, DCV or mitoxantrone uptake in ABCG2-overexpressing PLB cells; assay type: cell-based; design: expressed in transfected cells; host or cells: PLB (human lymphoblastoid) cells, lentiviral transduction; conditions: for ABC transporter transport assay, ABCG2 (summary): S6 summary table; for Effect on ABCG2 mediated transport (in words): PLB cells, compound 5 μM; as to ABC transporter transport assay, ABCG2 (summary): key: 0: no observed effect; +: effect observed in the assay; In the ATPase assay showing only inhibition, the - sign is applied
Protocol: as §3

[6] = system: ABCB1-overexpressing A431 cell line; conditions: human, 72 h
[7] = system: ABCG2-overexpressing A431 cell line; conditions: human, 72 h

T2 sequence (P9WG49 whole entry): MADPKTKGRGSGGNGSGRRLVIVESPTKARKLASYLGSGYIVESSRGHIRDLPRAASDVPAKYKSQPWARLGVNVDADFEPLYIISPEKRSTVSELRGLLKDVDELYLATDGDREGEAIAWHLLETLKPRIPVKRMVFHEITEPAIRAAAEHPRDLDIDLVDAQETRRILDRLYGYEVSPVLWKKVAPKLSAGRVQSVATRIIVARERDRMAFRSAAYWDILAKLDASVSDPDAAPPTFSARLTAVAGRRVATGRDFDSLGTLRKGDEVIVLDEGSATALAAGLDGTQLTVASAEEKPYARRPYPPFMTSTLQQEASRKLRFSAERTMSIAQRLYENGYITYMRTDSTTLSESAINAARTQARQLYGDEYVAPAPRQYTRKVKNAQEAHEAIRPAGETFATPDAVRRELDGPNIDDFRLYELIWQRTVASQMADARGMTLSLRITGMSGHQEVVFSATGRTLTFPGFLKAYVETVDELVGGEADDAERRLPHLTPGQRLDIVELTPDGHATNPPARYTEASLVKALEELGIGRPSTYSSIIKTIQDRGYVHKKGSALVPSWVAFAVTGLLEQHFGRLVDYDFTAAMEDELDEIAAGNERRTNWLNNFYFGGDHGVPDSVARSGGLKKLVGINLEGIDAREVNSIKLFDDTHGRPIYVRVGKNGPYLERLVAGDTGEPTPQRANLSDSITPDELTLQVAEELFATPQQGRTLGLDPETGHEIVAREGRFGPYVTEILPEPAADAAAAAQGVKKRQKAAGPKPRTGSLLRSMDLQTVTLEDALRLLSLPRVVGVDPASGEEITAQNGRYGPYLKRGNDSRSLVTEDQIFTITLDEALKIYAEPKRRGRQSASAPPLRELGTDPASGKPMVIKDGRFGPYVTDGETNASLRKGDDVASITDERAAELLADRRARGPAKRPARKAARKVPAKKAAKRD
T3 sequence (P08183 whole entry): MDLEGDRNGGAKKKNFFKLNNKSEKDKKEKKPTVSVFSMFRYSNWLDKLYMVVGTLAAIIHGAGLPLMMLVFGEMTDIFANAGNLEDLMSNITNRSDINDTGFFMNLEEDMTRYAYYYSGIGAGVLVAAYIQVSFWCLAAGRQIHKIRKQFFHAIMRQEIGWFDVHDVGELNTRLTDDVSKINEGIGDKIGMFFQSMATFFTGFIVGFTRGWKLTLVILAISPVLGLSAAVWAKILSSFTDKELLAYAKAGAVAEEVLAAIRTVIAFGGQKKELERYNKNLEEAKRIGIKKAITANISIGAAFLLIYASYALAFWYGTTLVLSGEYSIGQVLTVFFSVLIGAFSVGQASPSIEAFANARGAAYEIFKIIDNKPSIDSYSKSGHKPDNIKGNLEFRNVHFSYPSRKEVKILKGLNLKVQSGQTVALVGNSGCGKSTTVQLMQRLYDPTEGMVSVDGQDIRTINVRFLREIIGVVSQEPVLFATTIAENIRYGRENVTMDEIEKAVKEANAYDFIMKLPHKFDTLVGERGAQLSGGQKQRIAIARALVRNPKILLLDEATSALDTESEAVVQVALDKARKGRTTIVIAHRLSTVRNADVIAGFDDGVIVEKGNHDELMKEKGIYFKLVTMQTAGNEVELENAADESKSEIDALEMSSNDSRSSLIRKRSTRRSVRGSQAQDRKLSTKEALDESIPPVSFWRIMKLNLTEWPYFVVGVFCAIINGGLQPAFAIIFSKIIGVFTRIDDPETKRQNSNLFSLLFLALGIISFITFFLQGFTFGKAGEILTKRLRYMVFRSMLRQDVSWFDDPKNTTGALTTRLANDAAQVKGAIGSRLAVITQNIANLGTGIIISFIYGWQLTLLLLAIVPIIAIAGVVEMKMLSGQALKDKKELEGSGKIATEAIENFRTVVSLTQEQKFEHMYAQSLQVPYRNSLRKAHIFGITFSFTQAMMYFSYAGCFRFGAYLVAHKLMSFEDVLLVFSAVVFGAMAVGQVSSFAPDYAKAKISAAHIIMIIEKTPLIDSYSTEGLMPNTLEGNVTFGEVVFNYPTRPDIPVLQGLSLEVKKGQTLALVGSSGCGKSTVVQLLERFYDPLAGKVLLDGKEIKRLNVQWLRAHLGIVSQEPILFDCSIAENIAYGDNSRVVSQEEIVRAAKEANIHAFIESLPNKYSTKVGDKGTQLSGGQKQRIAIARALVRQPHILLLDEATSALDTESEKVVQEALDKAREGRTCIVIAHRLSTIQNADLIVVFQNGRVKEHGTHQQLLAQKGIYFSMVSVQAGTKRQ

Compound | Toxicity in HFF cell line, IC50 (HFF cell line) | IC50 (HEK293 cell line) [µM] | IC50 (parental A431 cell line; Homo sapiens, A-431, 72 h) [µM] | ABCG2 ATPase Vmax (human ABCG2 [1]) | Complete inhibition of MtTopoI (MtTopo-I) [µM] | Toxicity in H37Rv assay (summary) (H37Rv Mtb strain) | MIC90 of compounds in H37Rv growth test (H37Rv Mtb strain) | ABC transporter transport assay, ABCB1 (summary) (human ABCB1 [2]) | Toxicity in HEK293 cell line, IC50 (HEK293 cell line) | Toxicity in parental A431 cell line, IC50 (parental A431 cell line) | Toxicity in human cell lines (in words) [3] | Toxicity in mammalian cell lines (summary) ([3]; human, 72 h) | ABC transporter ATPase assay, ABCB1 (summary) (human ABCB1 [4]) | Effect on ABCB1-ATPase activity (in words) (human ABCB1 [4]) | ABCB1 ATPase, concentration at Vmax (human ABCB1 [4]) [µM] | ABCB1 ATPase Vmax (human ABCB1 [4]) | ABC transporter ATPase assay, ABCG2 (summary) (human ABCG2 [1]) | Effect on ABCG2-ATPase activity (in words) (human ABCG2 [1]) | ABCG2 ATPase, concentration at Vmax (human ABCG2 [1]) | ABC transporter transport assay, ABCG2 (summary) (human ABCG2 [5]) | further results
CCc1c2c(nc3ccc(OC(=O)N4CCC(N5CCCCC5)CC4)cc13)-c1cc3c(c(=O)n1C2)COC(=O)[C@]3(O)CC [Irinotecan, reference compound] | Non-toxic | 2.5 | 8.6 |  |  |  |  |  |  |  |  |  |  |  |  |  |  |  |  |  | 
O=c1c(O)c(-c2ccc(O)c(O)c2)oc2cc(O)cc(O)c12 [quercetin, reference compound] |  |  |  | 38.5±1 |  |  |  |  |  |  |  |  |  |  |  |  |  |  |  |  | 
Cc1ccc(-n2nc(C(C)(C)C)cc2Nc2nc3ccccc3nc2NCCCO)cc1 [VCC389777] | Non-toxic |  |  | 32.0±3.6 | 7.5 to 10 | 0 | N.I. | + | Non-toxic | Non-toxic | non-toxic | 0 | + | well measurable stimulatory effect | 12.5 | 14.4±1.5 | + | significantly stimulated; also recorded: slightly increased | 0.4 | + | Effect on ABCB1-ATPase activity (in words) (human ABCB1 [4]; listed as VCC38977): slightly increased
COc1ccc(/C=C/c2nc(NCCCN3CCOCC3)c3cc4ccccc4cc3n2)cc1 [VCC478498] |  | 10 to 20 | < 5 | 21.5±2.4 | 10 to 25 | + |  | + |  |  | toxic |  | 0 |  | 6.25 | 7.2±1.8 | - | only an inhibition | 2 | + | MIC90 (H37Rv Mtb strain): 0.6 µM (≈ 0.273 µg/mL); Growth inhibition of H37Rv mycobacteria (in words) (H37Rv Mtb strain): effectively inhibited the growth; IC50 (HFF cell line; Homo sapiens, HFF): < 5 µM; IC50 (HFF cell line): 2.5 to 5 µM; IC50 (parental A431 cell line): 3.03 µM; Toxicity in mammalian cell lines (summary) [3]: +; ABC transporter modified cytotoxicity, ABCB1 (summary) [6]: 0; ABC transporter modified cytotoxicity, ABCG2 (summary) [7]: 0
Cc1ccc(C)c(SCc2nc3cc4ccccc4cc3nc2CSc2cc(C)ccc2C)c1 [VCC891909] | Non-toxic+ |  |  | 25.3±5 | 7.5 to 10 | + |  | 0 | Non-toxic | Non-toxic |  | 0 | 0 | no measurable effect | 3 | 7.8±1.2 | 0 | no measurable effect | 0.01 | 0 | MIC90 (H37Rv Mtb strain): 10.4 µM (≈ 5 µg/mL); Growth inhibition of H37Rv mycobacteria (in words) (H37Rv Mtb strain): Mtb growth inhibitory effect; Effect on ABCB1 mediated transport (in words) (human ABCB1 [2]): no such transporter inhibitory effect; Effect on ABCG2 mediated transport (in words) (human ABCG2 [5]): no such transporter inhibitory effect
Brc1c2ccccc2c(Br)c2nc(-c3ccco3)c(-c3ccco3)nc12 [VCC450327] | Non-toxic |  |  | 27.2±0.8 | 0.1 | 0 | N.I. | 0 | Non-toxic | Non-toxic | non-toxic | 0 |  |  | 0.19 | 9.6±1.3 |  |  | 0.4 | + | Effect on ABCB1 mediated transport (in words) (human ABCB1 [2]): no effect; Effect on ABCG2 mediated transport (in words) (human ABCG2 [5]): only moderately influence; also recorded: only a slight effect
